Measured values published in US9856220B2 (AbbVie Deutschland GmbH & Co. KG, priority 2011, dated 2018).

How the values were obtained:
PDE10A = PDE10A (Homo sapiens (Human), UniProt Q9Y233); experiment: Measurement of PDE activity (recombinant PDE, cAMP HTRF); format: biochemical; conditions: 20 nM cyclic nucleotide substrate, 60 minutes at 29 C
Summary of the method: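 Recombinant human PDE10A in 20 mM Tris-HCl pH 7.5, 10 mM MgCl2, 0.1% BSA with 20 nM cyclic nucleotide substrate; reaction 60 min at 29 C after compound preincubation with enzyme. Residual cAMP detected by HTRF (cAMP-d2/anti-cAMP cryptate); IC50 from inhibitor concentration versus PDE activity.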

[1] = Determination of the microsomal half-life / microsomal clearance, rat liver microsomes; format: in vitro ADME; conditions: 0.5 μM test substance, 0.25 mg of microsomal protein/ml, pH 7.4, 37° C.
Experimental: (§1) b) Determination of the Microsomal Half-Life:
(§2) The metabolic stability of the compounds of the invention was determined in the following assay.
(§3) The test substances were incubated in a concentration of 0.5 μM as follows:
(§4) 0.5 μM test substance are preincubated together with liver microsomes from different species (from rat, human or other species) (0.25 mg of microsomal protein/ml) in 0.05 M potassium phosphate buffer of pH 7.4 in microtiter plates at 37° C. for 5 min. The reaction is started by adding NADPH (1 mg/mL). After 0, 5, 10, 15, 20 and 30 min, 50 μl aliquots are removed, and the reaction is immediately stopped and cooled with the same volume of acetonitrile. The samples are frozen until analyzed. The remaining concentration of undegraded test substance is determined by MSMS. The half-life (T½) is determined from the gradient of the signal of test substance/unit time plot, it being possible to calculate the half-life of the test substance, assuming first order kinetics, from the decrease in the concentration of the compound with time. The microsomal clearance (mCl) is calculated from mCl=ln 2/T½/(content of microsomal protein in mg/ml)×1000 [ml/min/mg]

[2] = Determination of the microsomal half-life / microsomal clearance, human liver microsomes; format: in vitro ADME; conditions: 0.5 μM test substance, 0.25 mg of microsomal protein/ml, pH 7.4, 37° C.
Experimental: as §1, §2, §3, §4

PDE10A, sequence (Q9Y233 whole entry, species assumed): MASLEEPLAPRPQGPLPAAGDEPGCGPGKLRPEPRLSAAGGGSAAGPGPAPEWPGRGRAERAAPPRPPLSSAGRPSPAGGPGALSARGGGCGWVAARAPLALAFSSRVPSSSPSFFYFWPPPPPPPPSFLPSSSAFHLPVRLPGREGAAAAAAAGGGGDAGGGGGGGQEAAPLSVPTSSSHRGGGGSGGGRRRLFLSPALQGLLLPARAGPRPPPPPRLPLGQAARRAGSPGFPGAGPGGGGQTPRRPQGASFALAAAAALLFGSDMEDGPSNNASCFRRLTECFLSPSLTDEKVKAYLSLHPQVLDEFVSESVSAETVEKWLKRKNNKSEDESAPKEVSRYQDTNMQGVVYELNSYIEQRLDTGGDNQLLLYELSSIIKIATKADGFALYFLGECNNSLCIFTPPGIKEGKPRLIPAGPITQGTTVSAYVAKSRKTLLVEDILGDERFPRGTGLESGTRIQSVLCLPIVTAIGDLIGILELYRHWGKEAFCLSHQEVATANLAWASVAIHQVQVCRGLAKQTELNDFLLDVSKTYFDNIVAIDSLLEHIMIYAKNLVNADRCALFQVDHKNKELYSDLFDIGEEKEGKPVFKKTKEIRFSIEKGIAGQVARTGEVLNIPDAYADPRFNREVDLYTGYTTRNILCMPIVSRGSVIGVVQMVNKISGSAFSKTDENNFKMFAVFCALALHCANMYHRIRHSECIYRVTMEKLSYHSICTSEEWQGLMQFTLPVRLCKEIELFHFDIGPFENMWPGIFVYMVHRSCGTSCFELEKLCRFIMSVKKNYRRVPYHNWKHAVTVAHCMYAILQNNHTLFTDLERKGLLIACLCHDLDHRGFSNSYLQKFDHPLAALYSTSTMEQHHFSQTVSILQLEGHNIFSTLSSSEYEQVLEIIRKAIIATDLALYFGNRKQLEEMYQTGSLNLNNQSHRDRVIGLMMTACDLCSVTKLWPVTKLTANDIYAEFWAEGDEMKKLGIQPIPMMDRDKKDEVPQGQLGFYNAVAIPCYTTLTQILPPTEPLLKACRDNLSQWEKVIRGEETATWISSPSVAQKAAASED

| Compound | IC50 (PDE10A) [nM] | Rat mCl [1] | Human mCl [2] |
| --- | --- | --- | --- |
| CCc1ccc(CNC(=O)c2cn(CC)c(=O)c3cc(OC)c(OC)cc23)cc1 [Example 313, 2-Ethyl-N-[(4-ethylphenyl)methyl]-6,7-dimethoxy-1-oxo-isoquinoline-4-carboxamide] | 200 to 500 | ++ (<100 μl min^−1 mg^−1) | ++ (<100 μl min^−1 mg^−1) |
| CCn1cc(C(=O)NC2CCc3ccc(F)cc32)c2cc(OC)c(OC)cc2c1=O (stereo not drawn) [Example 171, 2-Ethyl-N-(6-fluoro-2,3-dihydro-1H-inden-1-yl)-6,7-dimethoxy-1-oxo-1,2-dihydroisoquinoline-4-carboxamide] | 200 to 500 | ++ (<100 μl min^−1 mg^−1) | ++ (<100 μl min^−1 mg^−1) |
| CCC(CC)n1cc(C(=O)NCc2nncs2)c2cc(OC)c(OC)cc2c1=O [Example 201, 2-(1-Ethyl-propyl)-6,7-dimethoxy-1-oxo-1,2-dihydro-isoquinoline-4-carboxylic acid ([1,3,4]thiadiazol-2-ylmethyl)-amide] | 200 to 500 | ++ (<100 μl min^−1 mg^−1) | ++ (<100 μl min^−1 mg^−1) |
| CCn1cc(C(=O)NCc2ccc(C3CC3)cc2)c2cc(OC)c(OC)cc2c1=O [Example 318, N-[(4-Cyclopropylphenyl)methyl]-2-ethyl-6,7-dimethoxy-1-oxo-isoquinoline-4-carboxamide] | 200 to 500 | ++ (<100 μl min^−1 mg^−1) | ++ (<100 μl min^−1 mg^−1) |
| CCn1cc(C(=O)NCc2csc(C)n2)c2cc(OC)c(OC)cc2c1=O [Example 316, 2-Ethyl-6,7-dimethoxy-N-[(2-methylthiazol-4-yl)methyl]-1-oxo-isoquinoline-4-carboxamide] | 200 to 500 | ++ (<100 μl min^−1 mg^−1) | ++ (<100 μl min^−1 mg^−1) |
| CCC(CC)n1cc(C(=O)NCC2CCCCC2)c2cc(OC)c(OC)cc2c1=O [Example 190, 2-(1-Ethyl-propyl)-6,7-dimethoxy-1-oxo-1,2-dihydro-isoquinoline-4-carboxylic acid cyclohexylmethyl-amide] | 100 to 200 | + (100-220 μl min^−1 mg^−1) | ∘ (>220 μl min^−1 mg^−1) |
| CCC(CC)n1cc(C(=O)NC2CCc3ncccc32)c2cc(OC)c(OC)cc2c1=O (single isomer, unassigned; (-)) [Example 200, (−)-2-(1-Ethyl-propyl)-6,7-dimethoxy-1-oxo-1,2-dihydro-isoquinoline-4-carboxylic acid (6,7-dihydro-5H-[1]pyrindin-5-yl)-amide] | 200 to 500 | ++ (<100 μl min^−1 mg^−1) | ++ (<100 μl min^−1 mg^−1) |
| CCC(CC)n1cc(C(=O)NCc2ccccn2)c2cc(OC)c(OC)cc2c1=O [Example 263, 6,7-Dimethoxy-1-oxo-2-(pentan-3-yl)-N-(pyridin-2-ylmethyl)-1,2-dihydroisoquinoline-4-carboxamide] | 100 to 200 | ++ (<100 μl min^−1 mg^−1) | ++ (<100 μl min^−1 mg^−1) |
| CCn1cc(C(=O)Nc2cccc(OC)c2)c2cc(OC)c(OC)cc2c1=O [Example 147, 2-Ethyl-6,7-dimethoxy-N-(3-methoxyphenyl)-1-oxo-1,2-dihydroisoquinoline-4-carboxamide] | 100 to 200 | ++ (<100 μl min^−1 mg^−1) | ++ (<100 μl min^−1 mg^−1) |

Next, values leading:

| IC50 (PDE10A) [nM] | Rat mCl [1] | Human mCl [2] | Compound |
| --- | --- | --- | --- |
| 100 to 200 | ++ (<100 μl min^−1 mg^−1) | ++ (<100 μl min^−1 mg^−1) | CCC(CC)n1cc(C(=O)NCc2nccs2)c2cc(OC)c(OC)cc2c1=O [Example 228, 2-(1-Ethyl-propyl)-6,7-dimethoxy-1-oxo-1,2-dihydro-isoquinoline-4-carboxylic acid (thiazol-2-ylmethyl)-amide] |
| 100 to 200 | ++ (<100 μl min^−1 mg^−1) | + (100-220 μl min^−1 mg^−1) | CCC(CC)n1cc(C(=O)NCc2nc(C)cs2)c2cc(OC)c(OC)cc2c1=O [Example 247, 6,7-Dimethoxy-N-((4-methylthiazol-2-yl)methyl)-1-oxo-2-(pentan-3-yl)-1,2-dihydroisoquinoline-4-carboxamide] |
| 100 to 200 | ++ (<100 μl min^−1 mg^−1) | ++ (<100 μl min^−1 mg^−1) | CCn1cc(C(=O)NC2CCc3ccccc32)c2cc(OC)c(OC)cc2c1=O (stereo not drawn) [Example 40, 2-Ethyl-6,7-dimethoxy-1-oxo-1,2-dihydro-isoquinoline-4-carboxylic acid indan-1-ylamide] |
| < 100 | + (100-220 μl min^−1 mg^−1) | ∘ (>220 μl min^−1 mg^−1) | CCC(CC)n1cc(C(=O)NCc2ccccc2S(=O)(=O)N2CCOCC2)c2cc(OC)c(OC)cc2c1=O [Example 202, 2-(1-Ethyl-propyl)-6,7-dimethoxy-1-oxo-1,2-dihydro-isoquinoline-4-carboxylic acid 2-(morpholine-4-sulfonyl)-benzylamide] |
| < 100 | ∘ (>220 μl min^−1 mg^−1) | + (100-220 μl min^−1 mg^−1) | CCCCNC(=O)c1cn(CC)c(=O)c2cc(OC)c(OCCc3ccc4ccccc4n3)cc12 [Example 136, 2-Ethyl-7-methoxy-1-oxo-6-(2-quinolin-2-yl-ethoxy)-1,2-dihydro-isoquinoline-4-carboxylic acid butylamide] |
| 100 to 200 | ++ (<100 μl min^−1 mg^−1) | ++ (<100 μl min^−1 mg^−1) | CCn1cc(C(=O)Nc2ccc(N3CCOCC3)cc2)c2cc(OC)c(OC)cc2c1=O [Example 141, 2-Ethyl-6,7-dimethoxy-N-(4-morpholinophenyl)-1-oxo-1,2-dihydroisoquinoline-4-carboxamide] |
| < 100 | + (100-220 μl min^−1 mg^−1) | + (100-220 μl min^−1 mg^−1) | CCC(CC)n1cc(C(=O)NCc2ccccc2S(=O)(=O)N2CCN(C)CC2)c2cc(OC)c(OC)cc2c1=O [Example 219, 2-(1-Ethyl-propyl)-6,7-dimethoxy-1-oxo-1,2-dihydro-isoquinoline-4-carboxylic acid 2-(4-methyl-piperazine-1-sulfonyl)-benzylamide] |
| 100 to 200 | + (100-220 μl min^−1 mg^−1) | ∘ (>220 μl min^−1 mg^−1) | CCC(C)n1cc(C(=O)NC2CCc3ccccc32)c2cc(OC)c(OC)cc2c1=O (stereo not drawn) [Example 197, 2-sec-Butyl-6,7-dimethoxy-1-oxo-1,2-dihydro-isoquinoline-4-carboxylic acid indan-1-ylamide] |
| 100 to 200 | + (100-220 μl min^−1 mg^−1) | + (100-220 μl min^−1 mg^−1) | CCC(CC)n1cc(C(=O)NCc2ncc(C)s2)c2cc(OC)c(OC)cc2c1=O [Example 239, 6,7-Dimethoxy-N-((5-methylthiazol-2-yl)methyl)-1-oxo-2-(pentan-3-yl)-1,2-dihydroisoquinoline-4-carboxamide] |
| 100 to 200 | + (100-220 μl min^−1 mg^−1) | + (100-220 μl min^−1 mg^−1) | CCC(CC)n1cc(C(=O)NC2CC(=O)c3sccc32)c2cc(OC)c(OC)cc2c1=O (stereo not drawn) [Example 195, 2-(1-Ethyl-propyl)-6,7-dimethoxy-1-oxo-1,2-dihydro-isoquinoline-4-carboxylic acid (6-oxo-5,6-dihydro-4H-cyclopenta[b]thiophen-4-yl)-amide] |
| 100 to 200 | ∘ (>220 μl min^−1 mg^−1) | + (100-220 μl min^−1 mg^−1) | CCC(CC)n1cc(C(=O)NCc2occc2C)c2cc(OC)c(OC)cc2c1=O [Example 267, 6,7-Dimethoxy-N-((3-methylfuran-2-yl)methyl)-1-oxo-2-(pentan-3-yl)-1,2-dihydroisoquinoline-4-carboxamide] |
| 100 to 200 | ++ (<100 μl min^−1 mg^−1) | ++ (<100 μl min^−1 mg^−1) | CCn1cc(C(=O)NC2CCc3sccc32)c2cc(OC)c(OC)cc2c1=O (stereo not drawn) [Example 172, N-(5,6-Dihydro-4H-cyclopenta[b]thiophen-4-yl)-2-ethyl-6,7-dimethoxy-1-oxo-1,2-dihydroisoquinoline-4-carboxamide] |
| 100 to 200 | ++ (<100 μl min^−1 mg^−1) | + (100-220 μl min^−1 mg^−1) | CCC(CC)n1cc(C(=O)NCc2csc(C)n2)c2cc(OC)c(OC)cc2c1=O [Example 248, 6,7-Dimethoxy-N-((2-methylthiazol-4-yl)methyl)-1-oxo-2-(pentan-3-yl)-1,2-dihydroisoquinoline-4-carboxamide] |
| 100 to 200 | ++ (<100 μl min^−1 mg^−1) | ++ (<100 μl min^−1 mg^−1) | CCn1cc(C(=O)Nc2ccc(C)cc2)c2cc(OC)c(OC)cc2c1=O [Example 158, 2-Ethyl-6,7-dimethoxy-1-oxo-N-p-tolyl-1,2-dihydroisoquinoline-4-carboxamide] |
